# Experimental data reported in the supplement of paper PMC11061612.
# Assays:
# Experiment in all cases: combination Emax (second highest fraction inhibited in the dose matrix, 72 h); higher = more inhibition; extreme values may be limits of the assay
# NB13 (Neuroblastoma) = system: NB13 (Neuroblastoma)
# Procedure, shortened: (§1)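 After 24 hours at 37°C and 5% CO2 in 1536-well plates, cells in DMEM/F12 or RPMI plus 10% FBS received two-drug dose matrices for 72 hours. Viability came from CellTiter-Glo 2.0 luminescence and was scaled as inhibition, anchored at 0 by vehicle wells and at 1 by blank wells. Combination Emax is taken as the second-highest inhibition in the matrix, and Bliss excess as the observed combination effect less EA + EB − EA·EB, with EA and EB the single-agent effects.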
# EW-7 (Ewing's Sarcoma) = system: EW-7 (Ewing's Sarcoma)
# Procedure, shortened: as §1
# [1] = system: JHH-2 (Hepatocellular Carcinoma)
# Procedure, shortened: as §1
# [2] = system: A253 (Head and Neck Carcinoma)
# Procedure, shortened: as §1
# KP-N-YN (Neuroblastoma) = system: KP-N-YN (Neuroblastoma)
# Procedure, shortened: as §1
# [3] = system: LU-165 (Small Cell Lung Carcinoma)
# Procedure, shortened: as §1
# [4] = system: MDA-MB-436 (Breast Carcinoma)
# Procedure, shortened: as §1
# [5] = system: GCT (Other Solid Carcinomas)
# Procedure, shortened: as §1
# [6] = system: LS-411N (Colorectal Carcinoma)
# Procedure, shortened: as §1
# [7] = system: DMS-53 (Small Cell Lung Carcinoma)
# Procedure, shortened: as §1
# [8] = system: HT55 (Colorectal Carcinoma)
# Procedure, shortened: as §1
# [9] = system: SW620 (Colorectal Carcinoma)
# Procedure, shortened: as §1
# [10] = system: NCI-H441 (Lung Adenocarcinoma)
# Procedure, shortened: as §1
# WM1552C (Melanoma) = system: WM1552C (Melanoma)
# Procedure, shortened: as §1
# [11] = system: UACC-812 (Breast Carcinoma)
# Procedure, shortened: as §1
# [12] = system: HCC1395 (Breast Carcinoma)
# Procedure, shortened: as §1
# 769-P (Kidney Carcinoma) = system: 769-P (Kidney Carcinoma)
# Procedure, shortened: as §1
# [13] = system: NCI-H716 (Colorectal Carcinoma)
# Procedure, shortened: as §1
# [14] = system: JHU-022 (Oral Cavity Carcinoma)
# Procedure, shortened: as §1
# PEO1 (Ovarian Carcinoma) = system: PEO1 (Ovarian Carcinoma)
# Procedure, shortened: as §1
SMILES,combination Emax (NB13 (Neuroblastoma)),combination Emax (EW-7 (Ewing's Sarcoma)),combination Emax [1],combination Emax [2],combination Emax (KP-N-YN (Neuroblastoma)),combination Emax [3],combination Emax [4],combination Emax [5],combination Emax [6],combination Emax [7],combination Emax [8],combination Emax [9],combination Emax [10],combination Emax (WM1552C (Melanoma)),combination Emax [11],combination Emax [12],combination Emax (769-P (Kidney Carcinoma)),combination Emax [13],combination Emax [14],combination Emax (PEO1 (Ovarian Carcinoma))
"Cc1c2c(nn1C)CSCc1cc(n(C)n1)CSc1cc(c3ccccc3c1)OCCCc1c(C(=O)O)n(C)c3c-2c(Cl)ccc13 [AZD5991] + Cn1cnc2c(F)c(Nc3ccc(Br)cc3Cl)c(C(=O)NOCCO)cc21 [Selumetinib] (first compound max 1 µM, 7x7, partner max 3 µM)",0.263,0.271,0.342,0.944,0.204,0.161,0.152,0.427,0.826,0.618,0.692,0.643,0.405,0.884,0.579,0.56,0.227,0.515,0.398,0.25
"COc1cccc(OCCCN)c1-c1cc(Nc2cnc(C#N)cn2)n[nH]1 [Prexasertib] + O=C(c1cc(Cc2n[nH]c(=O)c3ccccc23)ccc1F)N1CCN(C(=O)C2CC2)CC1 [Olaparib] (first compound max 1 µM, 7x7, partner max 10 µM)",0.881,0.955,0.9,0.794,0.845,0.424,0.509,0.633,0.498,0.314,0.65,0.711,0.574,0.711,0.558,0.88,0.751,0.616,0.637,0.388
"Cc1c2c(nn1C)CSCc1cc(n(C)n1)CSc1cc(c3ccccc3c1)OCCCc1c(C(=O)O)n(C)c3c-2c(Cl)ccc13 [AZD5991] + Cc1cc2ncnn2cc1Nc1ncc2c(n1)n(C1CCOCC1)c(=O)n2C [AZD7648] (first compound max 1 µM, 7x7, partner max 10 µM)",0.245,0.652,0.596,0.849,0.228,0.265,0.226,0.352,0.116,0.554,0.242,0.213,0.259,0.71,0.488,0.545,0.32,0.228,0.245,0.178
"CCN(CCO)CCCOc1ccc2c(Nc3cc(CC(=O)Nc4cccc(F)c4)[nH]n3)ncnc2c1 [AZD2811] + O=C(c1cc(Cc2n[nH]c(=O)c3ccccc23)ccc1F)N1CCN(C(=O)C2CC2)CC1 [Olaparib] (first compound max 1 µM, 7x7, partner max 10 µM)",0.626,0.361,0.202,0.25,0.541,0.29,0.144,0.328,0.149,0.181,0.291,0.281,0.227,0.377,0.181,0.328,0.144,0.367,0.271,0.29
"Cn1cnc2c(F)c(Nc3ccc(Br)cc3Cl)c(C(=O)NOCCO)cc21 [Selumetinib] + C=CCn1c(=O)c2cnc(Nc3ccc(N4CCN(C)CC4)cc3)nc2n1-c1cccc(C(C)(C)O)n1 [AZD1775] (first compound max 10 µM, partner max 1 µM)",0.794,0.806,0.536,0.336,0.936,0.261,0.311,0.384,0.794,0.247,0.792,0.731,0.41,0.458,0.138,0.425,0.904,0.428,0.529,0.335
"Cc1c2c(nn1C)CSCc1cc(n(C)n1)CSc1cc(c3ccccc3c1)OCCCc1c(C(=O)O)n(C)c3c-2c(Cl)ccc13 [AZD5991] + C=CCn1c(=O)c2cnc(Nc3ccc(N4CCN(C)CC4)cc3)nc2n1-c1cccc(C(C)(C)O)n1 [AZD1775] (first compound max 1 µM, partner max 1 µM)",0.902,0.919,0.58,0.904,0.912,0.441,0.289,0.556,0.741,0.684,0.715,0.65,0.471,0.779,0.478,0.88,0.858,0.611,0.451,0.397
